Experimental data as given in article PMC10685318, “Trans-cyclosulfamidate mannose-configured cyclitol allows isoform-dependent inhibition of GH47 α-D-mannosidases through a bump–hole strategy” (Chemical Science, 2023).

What was measured:
[1] = target: T1, MAN2B1 (Homo sapiens, UniProt O00754); test: 4-MU-α-man activity assay in overexpressed cell lysates; type: biochemical
T1 construct: expressed in transfected cells
T1 sequence (O00754 50-1011): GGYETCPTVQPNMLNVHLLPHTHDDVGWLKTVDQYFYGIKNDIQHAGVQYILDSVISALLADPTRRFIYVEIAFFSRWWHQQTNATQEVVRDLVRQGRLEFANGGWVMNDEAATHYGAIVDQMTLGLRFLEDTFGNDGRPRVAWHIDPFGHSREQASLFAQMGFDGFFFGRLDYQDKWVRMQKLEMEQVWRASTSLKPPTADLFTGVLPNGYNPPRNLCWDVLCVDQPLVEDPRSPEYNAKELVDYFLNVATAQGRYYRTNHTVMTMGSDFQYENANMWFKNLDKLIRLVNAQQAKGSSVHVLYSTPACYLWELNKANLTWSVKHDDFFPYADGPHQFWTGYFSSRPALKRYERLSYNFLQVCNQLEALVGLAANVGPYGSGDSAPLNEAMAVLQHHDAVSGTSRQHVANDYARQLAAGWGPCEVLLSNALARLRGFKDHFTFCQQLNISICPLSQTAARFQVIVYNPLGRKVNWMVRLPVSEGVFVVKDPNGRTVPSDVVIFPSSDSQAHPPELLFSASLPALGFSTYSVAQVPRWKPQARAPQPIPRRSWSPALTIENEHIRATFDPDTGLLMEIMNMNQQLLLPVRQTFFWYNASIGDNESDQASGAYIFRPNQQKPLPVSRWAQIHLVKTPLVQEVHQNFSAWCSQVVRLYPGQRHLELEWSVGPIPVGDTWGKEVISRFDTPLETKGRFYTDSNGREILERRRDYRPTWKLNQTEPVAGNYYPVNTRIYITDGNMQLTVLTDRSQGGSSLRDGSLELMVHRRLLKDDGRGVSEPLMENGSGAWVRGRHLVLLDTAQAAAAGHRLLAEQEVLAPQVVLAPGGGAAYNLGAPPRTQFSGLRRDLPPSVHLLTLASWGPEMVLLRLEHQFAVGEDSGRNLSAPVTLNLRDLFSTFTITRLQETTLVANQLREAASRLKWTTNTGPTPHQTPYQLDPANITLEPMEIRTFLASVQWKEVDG

[2] = Chemical stability of the final compounds on storage; type: physicochemical
Description: 1,6-Cis-manno-cyclosulfate, 4, and 1,6-trans-manno-cyclosulfate, 5, were synthesized from mannose-configured cis-diol and trans-diol, respectively (ESI, Scheme S1 ^†).

SMILES: O=S1(=O)N[C@@H]2[C@@H](O)[C@@H](O)[C@H](O)[C@@H](CO)[C@H]2O1 [compound 6, 1,6-trans-manno-cyclosulfamidate]
- activity when the buffer was enriched with CoCl2 ([1]; CoCl2): no activity
- IC50 ([1]; Zn2+): > 1000 µM
- chemical stability [2]: chemically stable
